# In patent US20240217966A1, “PHARMACEUTICAL COMPOSITION CONTAINING GLP-1 RECEPTOR AGONIST HAVING FUSED RING” (Shionogi & Co., Ltd., priority 2021, published 2024):
# Read-outs that look alike come from different tables or passages of the source.
# Legend:
# Human GLP-1 receptor = target: T1, Human GLP-1 receptor (Homo sapiens, UniProt P43220); test: Measurement of GLP-1 receptor agonist activity (cAMP assay); type: cell-based
# T1 construct: expressed in transfected cells
# In short: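 Agonism measured as cAMP accumulation by time-resolved FRET immunoassay in CHO-K1 cells stably expressing human GLP-1 receptor. Cells treated for 1 h at 37 °C with compound and forskolin (400 μM stock), in buffer containing the PDE inhibitors IBMX (0.1 mM) and RO20-1724 (0.2 mM).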
# [1] = Metabolism stability test (Test Example 2-2); type: in vitro ADME; conditions: pooled human liver microsomes 0.5 mg protein/mL, 37° C., 30 minutes, 1 mmol/L NADPH (oxidative reaction), compound concentration 0.5 μmol/L
# Method: Test Example 2-2: Metabolism Stability Test
# Using commercially available pooled human liver microsomes, a compound of the present invention is reacted for a constant time, and a remaining rate is calculated by comparing a reacted sample and an unreacted sample, thereby, a degree of metabolism in liver is assessed.
# A reaction is performed (oxidative reaction) at 37° C. for 0 minute or 30 minutes in the presence of 1 mmol/L NADPH in 0.2 mL of a buffer (50 mmol/L Tris-HCl pH 7.4, 150 mmol/L potassium chloride, 10 mmol/L magnesium chloride) containing 0.5 mg protein/mL of human liver microsomes. After the reaction, 70 μL of the reaction solution is added to 140 μL of a methanol/acetonitrile=1/1 (v/v), mixed and centrifuged at 3000 rpm for 15 minutes. The compound of the present invention in the centrifuged supernatant is quantified by LC/MS/MS or solid-phase extraction (SPE)/MS. The ratio of the amount of the compound after the reaction, with respect to the amount of the compound at 0 minutes of the reaction defined as 100%, is shown as the residual rate. Hydrolysis reaction is performed in the absence of NADPH, and glucuronidation reaction is performed in the presence of 5 mmol/L UDP-glucuronic acid instead of NADPH. Then, the same operation is carried out. The dilution concentration or the dilution solvent are changed as necessary.
# The compounds of the present invention were tested essentially as described above.
# [2] = CHO-K1, hGLP-1R/CHO-K1 cells, cAMP, 100% = human GLP-1 (7-36) at 2 nM, 0% = DMSO only, read-out: Emax(%)
# [3] = hGLP-1R/CHO-K1 cells, cAMP increase, 37° C. 1 hour
# [4] = CHO-K1, maximum effect, cAMP increase in GLP-1 R/CHO-K1 cells, 2 nM human GLP-1 (7-36) = 100%, DMSO only = 0%, read-out: Emax
# [5] = cAMP increase in GLP-1 R/CHO-K1 cells, 2 nM human GLP-1 (7-36) = 100%, DMSO only = 0%
# T1 sequence (P43220 24-463): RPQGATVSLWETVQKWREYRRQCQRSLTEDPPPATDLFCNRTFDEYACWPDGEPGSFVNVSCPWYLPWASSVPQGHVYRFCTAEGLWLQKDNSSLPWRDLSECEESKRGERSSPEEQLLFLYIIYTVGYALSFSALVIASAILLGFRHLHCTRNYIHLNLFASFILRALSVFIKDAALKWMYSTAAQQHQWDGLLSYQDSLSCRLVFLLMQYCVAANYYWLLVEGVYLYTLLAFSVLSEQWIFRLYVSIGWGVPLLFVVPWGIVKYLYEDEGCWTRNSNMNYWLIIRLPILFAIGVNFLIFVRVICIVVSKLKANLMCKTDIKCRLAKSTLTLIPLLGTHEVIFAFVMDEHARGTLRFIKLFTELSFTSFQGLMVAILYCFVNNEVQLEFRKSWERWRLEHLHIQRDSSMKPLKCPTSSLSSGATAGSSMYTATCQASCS
SMILES,Emax (Human GLP-1 receptor; [2]) [%],EC50 (Human GLP-1 receptor; [3]) [pM],residual rate of the compound [1] [%],Emax (Human GLP-1 receptor; [4]) [%],EC50 (Human GLP-1 receptor; [5]) [pM]
O=C(O)c1cc(F)c2nc(CN3CCc4cc(C(F)(F)F)c(OCc5ccc(Cl)cc5F)cc4C3)n(C[C@@H]3CCO3)c2c1 [Compound I-033],109,1490,87.1,,
C[C@H]1c2cc(OCc3ccc(Cl)cc3F)c(C(F)(F)F)cc2CCN1Cc1nc2ccc(C(=O)O)cc2n1C[C@@H]1CCO1 [Compound I-035],129,298,87.1,,
O=C(O)c1ccc2nc(Cc3ccc4nc(C(F)(F)F)c(OCc5ccc(Cl)cc5F)nc4c3F)n(C[C@@H]3CCO3)c2c1 [Compound I-109],114,472,99.6,,
C[C@H]1c2cc(OCc3ccc(Cl)cc3F)c(C(F)(F)F)cc2CCN1Cc1nc2ccc(C(=O)O)c(F)c2n1C[C@@H]1CCO1 [Compound I-117],117,327,96.9,,
C[C@H]1c2cc(OCc3ccc(F)cc3)c(C(F)(F)F)cc2CCN1Cc1nc2ccc(C(=O)O)cc2n1C[C@@H]1CCO1 [Compound I-123],97.7,3760,> 99.9,,
C[C@H]1c2nc(OCc3ccc(Cl)cc3F)c(C(F)(F)F)cc2CCN1Cc1nc2ccc(C(=O)O)cc2n1C[C@@H]1CCO1 [Compound I-145],108,93.8,94.0,,
C[C@H]1c2nc(OCc3ccc(Cl)cc3F)c(C(F)(F)F)cc2CCN1Cc1nc2ccc(C(=O)O)c(F)c2n1C[C@@H]1CCO1 [Compound I-160],118,52.4,92.4,,
COc1cc(C(=O)O)cc2c1nc(CN1CCc3cc(C(F)(F)F)c(OCc4ccc(Cl)cc4Cl)nc3C1)n2C[C@@H]1CCO1 [Compound I-389],,,,115,50
COc1cc(C(=O)O)cc2c1nc(CN1CCc3cc(C(F)(F)F)c(OCc4ccc(Cl)cc4F)nc3C1)n2C[C@@H]1CCO1 [Compound I-390],,,,107,46
C[C@H]1c2nc(OCc3ccc(Cl)cn3)c(C(F)(F)F)cc2CCN1Cc1nc2ccc(C(=O)O)nc2n1C[C@@H]1CCO1 [Compound I-391],,,,107,396
COc1cc(C(=O)O)cc2c1nc(CN1CCc3cc(C(F)(F)F)c(OCc4ccc(Cl)cn4)nc3[C@@H]1C)n2C[C@@H]1CCO1 [Compound I-392],,,,135,15.6
C[C@H]1c2nc(OCc3ccc(Cl)cc3F)c(I)cc2CCN1Cc1nc2ccc(C(=O)O)cc2n1C[C@@H]1CCO1 [Compound I-393],,,,121,99
C[C@H]1c2nc(OCc3ccc(Cl)cc3F)c(C(F)F)cc2CCN1Cc1nc2ccc(C(=O)O)cc2n1C[C@@H]1CCO1 [Compound I-394],,,,108,49.7
C[C@H]1c2nc(OCc3ccc(Cl)cc3F)ccc2CCN1Cc1nc2ccc(C(=O)O)cc2n1C[C@@H]1CCO1 [Compound I-395],,,,89.7,618
